Data reported in patent EP2406206B1, “TETRAHYDRONAPHTHALEN-2-OL DERIVATIVES” (MSD Oss B.V., priority 2009, dated 2010).

Columns and labels:
[1] = biological target: human estrogen receptor β receptor (hERβ) (Homo sapiens, UniProt Q92731); experiment: ERβ transactivation bioassay in recombinant CHO cells (rat oxytocin promoter, luciferase reporter); format: cell-based; details: for ERβ/ERα ratio: ERβ agonistic selectivity over ERα, transactivation data; for EC50: transactivation of luciferase via hERβ in CHO cells, read-out: ERβ agonistic EC50; for ERβ eudismic ratio: ratio of the activities of the eutomer and the distomer on ERβ
Sequence of human estrogen receptor β receptor (hERβ) (Q92731 whole entry): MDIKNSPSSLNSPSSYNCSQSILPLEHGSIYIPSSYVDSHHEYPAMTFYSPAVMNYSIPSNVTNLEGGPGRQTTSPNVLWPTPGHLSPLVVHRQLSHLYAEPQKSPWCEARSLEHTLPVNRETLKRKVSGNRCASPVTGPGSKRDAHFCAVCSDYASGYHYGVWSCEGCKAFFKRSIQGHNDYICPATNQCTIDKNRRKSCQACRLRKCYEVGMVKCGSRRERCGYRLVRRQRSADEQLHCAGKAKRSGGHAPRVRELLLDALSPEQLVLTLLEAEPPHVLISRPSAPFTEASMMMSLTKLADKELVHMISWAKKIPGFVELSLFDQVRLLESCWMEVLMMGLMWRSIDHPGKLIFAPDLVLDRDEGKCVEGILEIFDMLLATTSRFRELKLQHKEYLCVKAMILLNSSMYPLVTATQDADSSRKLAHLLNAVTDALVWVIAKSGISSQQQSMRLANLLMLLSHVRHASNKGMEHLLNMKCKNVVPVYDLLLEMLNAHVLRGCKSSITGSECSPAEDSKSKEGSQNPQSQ
Procedure: (§1) The estrogenic and antiestrogenic activity of compounds was determined in an in vitro bioassay with recombinant Chinese hamster ovary (CHO) cells stably co-transfected with the human estrogen receptor α (hERα) or β receptor (hERβ), the rat oxytocin promoter (RO) and the luciferase reporter gene (LUC). The estrogenic activity of a test compound to stimulate the transactivation of the enzyme luciferase mediated via the estrogen receptors hERα or hERβ is expressed in nM. The assay was performed as described by De Gooyer et al., Steroids 68 (2003), 21-30. Table 7. ERβ and ERα transactivation data

[2] = metabolic stability in human hepatocytes; format: in vitro ADME; details: cryopreserved human hepatocytes in suspension, tetrahydronaphthalen-2-ol, 37°C, sampled 0-120 min, LC-MS/MS, read-out: Human hepatocyte T1/2
Procedure: A number of compounds 9, 11 and 12 were tested on metabolic stability in human hepatocytes. The hepatic stability was compared to corresponding chroman compounds 25, 26 or 27 (see structures below).
Test compounds were diluted to 3 µM in incubation medium. Then 40 µl of the 3 µM test compounds was pipetted into a 96 well microtiter plate (flat bottom). Hepatocytes (stored at -140 °C) were thawed in a 37°C water bath. The cells were resuspended into pre-warmed thawing medium and were centrifuged for 5 minutes at 50g at room temperature. The supernatant was discarded and the remaining cell pellet was resuspended in warm incubation medium and diluted to 7.5 E5 cells/ml. Then 80 µl of the cell suspension was added to each well of the 96 well microtiter plate containing the test compounds. The resulting mixture was incubated at 37°C and was sampled at t=0, 5, 30, 60, and 120 min. The samples were analyzed by LC-MS/MS to determine the content of unchanged test compound. Based on the rate of reduction of the content of test compound over time, the half-live (T1/2) was calculated. Metabolic stability in human hepatocytes

[3] = biological target: T1, human estrogen receptor α (hERα) (Homo sapiens, UniProt P03372); experiment: ERα transactivation bioassay in recombinant CHO cells (rat oxytocin promoter, luciferase reporter); format: cell-based; details: ratio of the activities of the eutomer and the distomer on ERα
T1 sequence (P03372 1-595): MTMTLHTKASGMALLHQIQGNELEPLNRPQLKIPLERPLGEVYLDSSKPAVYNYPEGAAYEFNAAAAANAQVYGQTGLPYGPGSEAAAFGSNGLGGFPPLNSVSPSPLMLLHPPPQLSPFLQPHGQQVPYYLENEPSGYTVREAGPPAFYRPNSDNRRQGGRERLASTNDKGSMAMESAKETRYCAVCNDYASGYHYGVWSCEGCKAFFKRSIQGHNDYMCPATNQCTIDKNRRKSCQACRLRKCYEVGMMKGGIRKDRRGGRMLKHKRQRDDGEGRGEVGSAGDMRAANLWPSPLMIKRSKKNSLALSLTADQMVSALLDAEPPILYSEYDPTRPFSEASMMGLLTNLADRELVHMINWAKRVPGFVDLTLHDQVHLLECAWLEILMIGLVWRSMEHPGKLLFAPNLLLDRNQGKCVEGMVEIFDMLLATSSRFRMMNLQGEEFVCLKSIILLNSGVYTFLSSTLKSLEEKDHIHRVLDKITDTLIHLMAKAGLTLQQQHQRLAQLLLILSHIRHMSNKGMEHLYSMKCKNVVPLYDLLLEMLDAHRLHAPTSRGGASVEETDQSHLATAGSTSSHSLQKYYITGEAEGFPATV
Procedure: as §1

Structure (SMILES) | ERβ/ERα ratio [1] | EC50 [1] [nM] | half-life at 1 µM [2] [h] | ERβ eudismic ratio [1] | ERα eudismic ratio [3]
CCC1C(c2ccc(O)cc2)Cc2ccc(O)cc2C1Cc1ccccc1F (racemic) [Compound 9b, 8-(2-fluorobenzyl)-6-(4-hydroxyphenyl)-7-ethyl-5,6,7,8-tetrahydronaphthalen-2-ol] | 77 | 0.35 | 1.17 |  | 
CCCC1C(c2ccc(O)cc2)Cc2ccc(O)cc2C1Cc1ccccc1F (racemic) [Compound 9c, 8-(2-fluorobenzyl)-6-(4-hydroxyphenyl)-7-propyl-5,6,7,8-tetrahydronaphthalen-2-ol] | 33 | 0.4 |  |  | 
CC1C(c2ccc(O)cc2)Cc2ccc(O)cc2C1Cc1ccccc1 (racemic) [Compound 9d, 8-benzyl-6-(4-hydroxyphenyl)-7-methyl-5,6,7,8-tetrahydronaphthalen-2-ol] | 51 | 0.68 |  |  | 
CCC1C(c2ccc(O)cc2)Cc2ccc(O)cc2C1Cc1ccccc1 (racemic) [Compound 9e, 8-benzyl-7-ethyl-6-(4-hydroxyphenyl)-5,6,7,8-tetrahydronaphthalen-2-ol] | 18 | 0.42 |  |  | 
CC1C(c2ccc(O)cc2)Cc2ccc(O)cc2C1Cc1ccc(F)cc1 (racemic) [Compound 9g, 8-(4-fluorobenzyl)-6-(4-hydroxyphenyl)-7-methyl-5,6,7,8-tetrahydronaphthalen-2-ol] | >43 | 2.3 |  |  | 
CC1C(c2ccc(O)cc2)Cc2ccc(O)cc2C1Cc1ccccc1C#N (racemic) [Compound 9j, 2-((7-hydroxy-3-(4-hydroxyphenyl)-2-methyl-1,2,3,4-tetrahydronaphthalen-1-yl)methyl)benzonitrile] | 605 | 0.56 | 0.623 |  | 
CCC1C(c2ccc(O)cc2)Cc2ccc(O)cc2C1Cc1ccccc1C#N (racemic) [Compound 9k, 2-((2-ethyl-7-hydroxy-3-(4-hydroxyphenyl)-1,2,3,4-tetrahydronaphthalen-1-yl)methyl)benzonitrile] | >204 | 0.49 |  |  | 
CC1C(c2ccc(O)cc2)Cc2ccc(O)cc2C1Cc1ccccc1Cl (racemic) [Compound 9l, 8-(2-chlorobenzyl)-6-(4-hydroxyphenyl)-7-methyl-5,6,7,8-tetrahydronaphthalen-2-ol] | 339 | 0.33 |  |  | 
CCC1C(c2ccc(O)cc2)Cc2ccc(O)cc2C1Cc1ccc(O)cc1 (racemic) [Compound 9m, 7-ethyl-8-(4-hydroxybenzyl)-6-(4-hydroxyphenyl)-5,6,7,8-tetrahydronaphthalen-2-ol] | 2 | 31 |  |  | 
CCC1C(c2ccc(O)cc2F)Cc2ccc(O)cc2C1Cc1ccccc1F (racemic) [Compound 9o, 7-ethyl-6-(2-fluoro-4-hydroxyphenyl)-8-(2-fluorobenzyl)-5,6,7,8-tetrahydronaphthalen-2-ol] | 42 | 0.17 | 1.22 |  | 
CC1C(c2ccc(O)cc2F)Cc2ccc(O)cc2C1Cc1ccccc1F (racemic) [Compound 9p, 6-(2-fluoro-4-hydroxyphenyl)-8-(2-fluorobenzyl)-7-methyl-5,6,7,8-tetrahydronaphthalen-2-ol] | >333 | 0.3 | > 2 |  | 
Cc1cc(C2Cc3ccc(O)cc3C(Cc3ccccc3F)C2C)ccc1O (racemic) [Compound 9r, 8-(2-fluorobenzyl)-6-(4-hydroxy-3-methylphenyl)-7-methyl-5,6,7,8-tetrahydronaphthalen-2-ol] | >83 | 1.2 | 0.965 |  | 
CC1C(c2ccc(O)cc2)Cc2ccc(O)c(F)c2C1Cc1ccccc1F (racemic) [Compound 9s, 1-fluoro-8-(2-fluorobenzyl)-5,6,7,8-tetrahydro-6-(4-hydroxyphenyl)-7-methylnaphthalen-2-ol] | >21 | 4.7 | 1.61 |  | 
CCC1C(c2ccc(O)cc2)Cc2ccc(O)cc2C1Cc1ccccc1C (racemic) [Compound 9v, 7-ethyl-6-(4-hydroxyphenyl)-8-(2-methylbenzyl)-5,6,7,8-tetrahydronaphthalen-2-ol] | >63 | 1.6 | 1.16 |  | 
CCC1C(c2ccc(O)cc2)Cc2ccc(O)cc2C1Cc1ccc(F)cc1 (racemic) [Compound 9w, 7-ethyl-8-(4-fluorobenzyl)-6-(4-hydroxyphenyl)-5,6,7,8-tetrahydronaphthalen-2-ol] | 12 | 0.91 |  |  | 
C[C@H]1[C@@H](c2ccc(O)cc2)Cc2ccc(O)cc2[C@H]1Cc1ccc(F)cc1 (single isomer, unassigned) [Compound 11g] | 19 | 1.4 |  | 9 | >4
C[C@H]1[C@@H](c2ccc(O)cc2)Cc2ccc(O)cc2[C@H]1Cc1ccccc1C#N (single isomer, unassigned) [Compound 11j] | >714 | 0.14 | 0.49 | 143 | 
CC[C@H]1[C@@H](c2ccc(O)cc2)Cc2ccc(O)cc2[C@H]1Cc1ccc(F)cc1 (single isomer, unassigned) [Compound 11w] | 61 | 0.36 |  | 42 | 0.4
COc1ccccc1CC1c2cc(O)ccc2CC(c2ccc(O)cc2)C1C (centres unmarked) [Compound 8n, 6-(4-hydroxyphenyl)-8-(2-methoxybenzyl)-7-methyl-5,6,7,8-tetrahydronaphthalen-2-ol] | >40 | 2.5 |  |  | 

Results, then the compound that gave them:

ERβ/ERα ratio [1] | EC50 [1] [nM] | half-life at 1 µM [2] [h] | ERβ eudismic ratio [1] | ERα eudismic ratio [3] | Structure (SMILES)
193 | 0.45 |  |  |  | CC1C(c2ccc(O)cc2)Cc2ccc(O)cc2C1Cc1ccccc1F (racemic) [Compound 9a, 8-(2-fluorobenzyl)-6-(4-hydroxyphenyl)-7-methyl-5,6,7,8-tetrahydronaphthalen-2-ol]
>33 | 3 |  |  |  | CC1C(c2ccc(O)cc2)Cc2ccc(O)cc2C1Cc1cccc(F)c1 (racemic) [Compound 9f, 8-(3-fluorobenzyl)-6-(4-hydroxyphenyl)-7-methyl-5,6,7,8-tetrahydronaphthalen-2-ol]
>167 | 0.6 |  |  |  | CC1C(c2ccc(O)cc2)Cc2ccc(O)cc2C1Cc1cc(F)ccc1F (racemic) [Compound 9h, 8-(2,5-difluorobenzyl)-6-(4-hydroxyphenyl)-7-methyl-5,6,7,8-tetrahydronaphthalen-2-ol]
>102 | 0.98 |  |  |  | CC1C(c2ccc(O)cc2)Cc2ccc(O)cc2C1Cc1c(F)cccc1F (racemic) [Compound 9i, 8-(2,6-difluorobenzyl)-6-(4-hydroxyphenyl)-7-methyl-5,6,7,8-tetrahydronaphthalen-2-ol]
>8 | 12 | 1.83 |  |  | CC1C(c2ccc(O)cc2)Cc2ccc(O)c(F)c2C1Cc1c(F)cccc1F (racemic) [Compound 9y, 8-(2,6-difluorobenzyl)-1-fluoro-5,6,7,8-tetrahydro-6-(4-hydroxyphenyl)-7-methyl-naphthalen-2-ol]
21 | 1.2 |  | 13 | >4 | C[C@H]1[C@@H](c2ccc(O)cc2)Cc2ccc(O)cc2[C@H]1Cc1cccc(F)c1 (single isomer, unassigned) [Compound 11f]
>213 | 0.47 |  | >212 |  | C[C@H]1[C@@H](c2ccc(O)cc2)Cc2ccc(O)cc2[C@H]1Cc1c(F)cccc1F (single isomer, unassigned) [Compound 11i]
 |  | 1.11 |  |  | C[C@@H]1[C@H](c2ccc(O)cc2)Cc2ccc(O)cc2[C@@H]1Cc1ccccc1F (single isomer, unassigned) [Compound 12a]
 |  | 1.12 |  |  | C[C@@H]1[C@H](c2ccc(O)cc2)Cc2ccc(O)cc2[C@@H]1Cc1c(F)cccc1F (single isomer, unassigned) [Compound 12i]
